Assay [1] concerns the target 5-hydroxytryptamine receptor 2A (Rattus norvegicus, UniProt P14842). The assay is described as follows: In vitro binding affinity at 5-hydroxytryptamine 2A receptor by displacement of [3H]ketanserin from rat cortex.
Assay [2] has as its target T1, 5-hydroxytryptamine receptor 1A (Homo sapiens) (UniProt P08908).
T1 sequence (whole entry): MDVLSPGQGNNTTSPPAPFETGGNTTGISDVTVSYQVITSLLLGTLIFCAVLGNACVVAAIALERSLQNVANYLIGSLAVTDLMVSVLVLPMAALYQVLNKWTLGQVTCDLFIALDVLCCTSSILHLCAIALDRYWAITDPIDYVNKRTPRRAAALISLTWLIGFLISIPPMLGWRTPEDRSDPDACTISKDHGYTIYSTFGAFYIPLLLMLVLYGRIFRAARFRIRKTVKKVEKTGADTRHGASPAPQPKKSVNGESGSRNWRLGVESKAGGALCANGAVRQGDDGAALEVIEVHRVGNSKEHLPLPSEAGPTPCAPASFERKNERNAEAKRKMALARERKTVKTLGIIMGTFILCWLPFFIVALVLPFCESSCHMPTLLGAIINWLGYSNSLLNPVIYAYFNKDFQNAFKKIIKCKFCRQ
Put plainly: Percent inhibition of vasoactive intestinal polypeptide-induced (VIP-induced) cAMP formation in GH4ZD10 cells expressing 5-HT1A receptor at 50 uM relative to 5-HT. Type of assay: functional, cell-based.

The target of the next assay is D(1A) dopamine receptor (Rattus norvegicus, UniProt P18901). The assay is described as follows: In vitro binding affinity at D1 receptor by measuring its ability to displace [3H]SCH-23390 from Dopamine receptor D1 in rat striatum.
Assay [3] concerns the target T2, 5-hydroxytryptamine receptor 1A (Rattus norvegicus, UniProt P19327).
T2 sequence (P19327 whole entry): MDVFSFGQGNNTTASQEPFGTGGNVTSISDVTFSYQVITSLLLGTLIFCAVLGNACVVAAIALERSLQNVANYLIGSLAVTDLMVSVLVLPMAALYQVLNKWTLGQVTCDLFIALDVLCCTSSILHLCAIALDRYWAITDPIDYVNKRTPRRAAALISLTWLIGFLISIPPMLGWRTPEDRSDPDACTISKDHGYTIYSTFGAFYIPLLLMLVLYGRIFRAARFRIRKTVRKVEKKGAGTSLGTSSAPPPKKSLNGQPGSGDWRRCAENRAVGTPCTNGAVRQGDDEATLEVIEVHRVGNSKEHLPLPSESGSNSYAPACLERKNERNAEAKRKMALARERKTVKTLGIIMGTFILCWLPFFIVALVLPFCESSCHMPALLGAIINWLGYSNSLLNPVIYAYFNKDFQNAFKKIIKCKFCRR
Put plainly: In vitro binding affinity at 5-HT1A receptors assayed by displacement of [3H]8-OH-DPAT from 5-hydroxytryptamine 1A receptor in rat hippocampal membranes. The class given is cell membranes, Hippocampus, Membrane.

The target of assay [4] is T3, D(2) dopamine receptor (Homo sapiens, UniProt P14416). The assay is described as follows: In vitro binding affinity at human cloned Dopamine receptor D2A measured by ability to displace [3H]raclopride from D2A receptor expressed in mouse fibroblast (LtK-) cells. Type of assay: cell-based.
Assay [5] has as its target T4, 5-hydroxytryptamine receptor 1A (Rattus norvegicus) (UniProt P19327).
T4 sequence (whole entry): T2 sequence (P19327 whole entry)
Put plainly: Percent of maximum response by 5-HT when tested for inhibition of vasoactive intestinal polypeptide-induced (VIP-induced) cAMP formation assessed in GH4ZD10 cells at 50 uM concentration; No effect. The class given is functional, cell-based.

For assay [6], the target named is T2, 5-hydroxytryptamine receptor 1A. Put plainly: In vitro binding affinity at 5-HT1A receptor by measuring its ability to displace [3H]-8-OH-DPAT from 5-hydroxytryptamine 1A receptor in rat hippocampal membranes+cortex. Type of assay: cell membranes, Hippocampus.
In assay [7] the target is T4, 5-hydroxytryptamine receptor 1A (Rattus norvegicus). Put plainly: Percent of maximum response by 5-HT when tested for inhibition of vasoactive intestinal polypeptide-induced (VIP-induced) cAMP formation assessed in GH4ZD10 cells at 10 uM concentration. The class given is functional, cell-based.
Assay [8] concerns the target T2, 5-hydroxytryptamine receptor 1A. The assay is described as follows: In vitro binding affinity at 5-HT1A receptor by measuring its ability to displace [3H]8-OH-DPAT from 5-hydroxytryptamine 1A receptor in rat hippocampal membranes + cortex. Type of assay: cell membranes, Hippocampus.
The target in assay [9] is T3, D(2) dopamine receptor. The assay is described as follows: In vitro binding affinity at human cloned Dopamine receptor D2A by measuring its ability to displace [3H]raclopride from D2A receptor expressed in mouse fibroblast (LtK-) cells. Type of assay: cell-based.

Each structure is given as a SMILES string. The source made the active and inactive calls. No cut-off for these calls is given here.

T3 sequence (P14416 whole entry): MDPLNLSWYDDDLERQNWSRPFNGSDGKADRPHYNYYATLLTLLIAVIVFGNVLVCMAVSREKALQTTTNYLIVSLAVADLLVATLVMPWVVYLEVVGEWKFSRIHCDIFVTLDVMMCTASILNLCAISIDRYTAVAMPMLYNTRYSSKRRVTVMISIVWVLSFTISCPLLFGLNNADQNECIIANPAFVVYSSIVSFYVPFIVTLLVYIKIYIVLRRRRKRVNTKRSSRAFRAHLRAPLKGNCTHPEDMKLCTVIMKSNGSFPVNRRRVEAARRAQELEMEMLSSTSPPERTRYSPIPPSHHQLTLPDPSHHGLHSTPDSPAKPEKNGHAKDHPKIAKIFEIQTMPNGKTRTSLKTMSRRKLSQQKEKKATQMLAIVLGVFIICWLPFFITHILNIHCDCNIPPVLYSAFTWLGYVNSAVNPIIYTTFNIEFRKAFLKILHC
D(1A) dopamine receptor, sequence (P18901 whole entry): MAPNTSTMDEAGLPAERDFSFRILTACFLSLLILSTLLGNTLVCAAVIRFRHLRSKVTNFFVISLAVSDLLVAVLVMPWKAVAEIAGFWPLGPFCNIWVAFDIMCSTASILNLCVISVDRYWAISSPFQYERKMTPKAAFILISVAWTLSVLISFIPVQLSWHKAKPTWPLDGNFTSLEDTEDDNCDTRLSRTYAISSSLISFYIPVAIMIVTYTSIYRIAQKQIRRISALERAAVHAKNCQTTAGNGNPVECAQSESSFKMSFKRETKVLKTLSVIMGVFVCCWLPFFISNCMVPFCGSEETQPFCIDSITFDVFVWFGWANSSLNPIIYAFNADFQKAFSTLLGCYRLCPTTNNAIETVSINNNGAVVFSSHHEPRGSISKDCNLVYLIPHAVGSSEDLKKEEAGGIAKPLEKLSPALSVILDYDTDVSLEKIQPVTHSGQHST
5-hydroxytryptamine receptor 2A, sequence (P14842 whole entry): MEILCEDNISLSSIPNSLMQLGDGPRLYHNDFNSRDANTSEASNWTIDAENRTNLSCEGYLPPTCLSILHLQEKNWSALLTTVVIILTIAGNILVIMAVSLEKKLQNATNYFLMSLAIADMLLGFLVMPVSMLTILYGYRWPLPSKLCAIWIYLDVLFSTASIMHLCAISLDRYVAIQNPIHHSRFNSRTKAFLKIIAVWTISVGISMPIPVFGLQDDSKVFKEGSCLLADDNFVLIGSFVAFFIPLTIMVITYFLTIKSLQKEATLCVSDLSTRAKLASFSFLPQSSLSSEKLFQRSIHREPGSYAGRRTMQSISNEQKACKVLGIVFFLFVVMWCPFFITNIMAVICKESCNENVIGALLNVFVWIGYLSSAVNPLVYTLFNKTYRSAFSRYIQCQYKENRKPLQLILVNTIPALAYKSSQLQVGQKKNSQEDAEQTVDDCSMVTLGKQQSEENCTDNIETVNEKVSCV

On to `CC(C)N[C@H]1COc2cccc(C(N)=O)c2C1`, for which the Ki in assay [1] is above 1000 nM; at D(1A) dopamine receptor, above 1000 nM; in assay [3] it was 397 nM; on D(2) dopamine receptor [4], above 1000 nM. The same molecule gave an Efficacy in assay [2] of 20%.

The molecule `CNC(=O)c1cccc2c1C[C@@H](NCCCCN1C(=O)CC3(CCCC3)CC1=O)CO2` showed an Efficacy in [2] of 61%. Moreover, the affinity in assay [3] corresponds to a Ki of 525 nM.

Consider `CCCN(C(C)C)[C@@H]1COc2cccc(C(=O)NC(C)C)c2C1`, for which the results for the inhibitory constant (Ki) (in [1]; at D(1A) dopamine receptor; on D(2) dopamine receptor [4]) were above 10000 nM, above 50000 nM and above 50000 nM, respectively. The Efficacy entry in assay [5] was “inactive”.

As for `CCCN(C(C)C)[C@H]1COc2cccc(C(N)=O)c2C1`, the Ki in [1] was above 1000 nM; at D(1A) dopamine receptor, above 1000 nM; in assay [3] it was 0.48 nM; at D(2) dopamine receptor [4], above 50000 nM. The Efficacy in [2] is 75%.

Consider `CCCN(C(C)C)[C@H]1COc2cccc(C(=O)OC)c2C1`, for which the Efficacy in [2] stood at 128%. The molecule further yielded an inhibition constant (Ki) in assay [3] of 0.32 nM.

In the case of `CCCN(C1CCCC1)[C@H]1COc2cccc(C(=O)OC)c2C1`, in assay [3], the Ki worked out at 0.41 nM.

With `CCCN(CC(C)(C)C)[C@H]1COc2cccc(C(=O)NC)c2C1`, the Efficacy in assay [2] amounted to 88%. In assay [3], this molecule returned a Ki of 31 nM.

In assay [6], `CCCN(C(C)C)[C@H]1COc2cccc(OC)c2C1` came in with a Ki of 3.1 nM.

As to `CCCN(C1CCCC1)[C@H]1COc2cccc(C(N)=O)c2C1`, the inhibition constant (Ki) is above 1000 nM in assay [1], above 4000 nM at D(1A) dopamine receptor, below 0.3 nM in assay [3] and above 1000 nM at D(2) dopamine receptor [4]. In assay [7], this molecule returned an Efficacy of 80%.

In the case of `CCCN(CCC)[C@@H]1COc2cccc(C(=O)NC(C)C)c2C1`, the Ki in assay [8] was 64 nM. Moreover, the Efficacy in assay [2] was determined as 95%.

In assay [2], `CCCN(C1CCCC1)[C@@H]1COc2cccc(C(=O)NC)c2C1` gave an Efficacy of 110%. The same molecule came in with a Ki in assay [3] of 18.5 nM.

With `CCCN(C(C)C)[C@@H]1COc2cccc(C(C)=O)c2C1`, the Ki was found to be 30100 nM on D(2) dopamine receptor [9] and 11.9 nM in assay [3]. Moreover, the Efficacy in [2] was 128%.

Consider `CC(C)NC(=O)c1cccc2c1C[C@@H](NC(C)C)CO2`, for which the inhibition constant Ki in assay [1] was above 10000 nM; at D(1A) dopamine receptor, above 1000 nM; in [3], 4300 nM; at D(2) dopamine receptor [4], above 1000 nM. Also, in [5], the Efficacy entry is “inactive”.

As to `CCCN(C(C)C)[C@H]1COc2cccc(C(C)=O)c2C1`, the Ki in assay [3] is 0.3 nM.

`CCCN(C(C)C)[C@@H]1COc2cccc(OC)c2C1` yielded a Ki in [6] of 134 nM.

`CNC(=O)c1cccc2c1C[C@H](NCCCCN1C(=O)CC3(CCCC3)CC1=O)CO2`: the Efficacy in assay [2] turned out to be 82%. The molecule also displayed a Ki in [3] of 24.3 nM.

In turn, `CCCN(CC(C)(C)C)[C@@H]1COc2cccc(C(=O)NC)c2C1` had an Efficacy in [7] of 91%. The affinity in assay [3], expressed as Ki, was 3.96 nM.

For the molecule `CCCN(CCCCN1C(=O)CC2(CCCC2)CC1=O)[C@@H]1COc2cccc(C(=O)NC)c2C1`, in assay [2], the Efficacy worked out at 103%. In assay [3], this molecule registered an inhibition constant Ki below 0.3 nM.

`CCCN(C1CCCC1)[C@H]1COc2cccc(C(=O)NC)c2C1` showed an Efficacy in [2] of 70%. The molecule further displayed a Ki in [3] below 0.3 nM.

`CCCN(CCCCN1C(=O)CC2(CCCC2)CC1=O)[C@H]1COc2cccc(C(=O)NC)c2C1`: the Efficacy in assay [2] came out at 62%. The inhibitory constant (Ki) in assay [3] was found to be 0.34 nM.

As to `NC(=O)c1cccc2c1C[C@@H](N)CO2`, the inhibition constant (Ki) (in [1]; on D(1A) dopamine receptor; at D(2) dopamine receptor [4]) was above 1000 nM each time. The Efficacy entry in [5] was “inactive”.

`CCCN(C(C)C)[C@H]1COc2cccc(C(=O)NC(C)C)c2C1` [EBALZOTAN]: the inhibitory constant (Ki) in assay [1] was above 10000 nM; at D(1A) dopamine receptor, above 50000 nM; in [3] it was 7.77 nM; on D(2) dopamine receptor [4], above 50000 nM. The molecule further gave an Efficacy in assay [2] of 74%.

As to `CNC(=O)c1cccc2c1C[C@H](N(CCCCN1C(=O)CC3(CCCC3)CC1=O)CC(C)C)CO2`, the Efficacy in assay [2] came to 123%. Further, in assay [3], the inhibition constant (Ki) came to 2.48 nM.

As for `CCN(C(C)C)[C@H]1COc2cccc(C(=O)NC(C)C)c2C1`, the inhibitory constant (Ki) is above 1000 nM in assay [1], above 1000 nM on D(1A) dopamine receptor, 200 nM in [3] and above 1000 nM on D(2) dopamine receptor [4]. The molecule further displayed an Efficacy in [7] of 34%.

For `CCCN(CC(C)C)[C@H]1COc2cccc(C(=O)NC)c2C1`, the inhibitory constant (Ki) in assay [1] was above 50000 nM; in assay [3] it was 2.37 nM. The molecule further had an Efficacy in assay [2] of 96%.

As for `CCCN(CCC)[C@H]1COc2cccc(C(=O)NC(C)C)c2C1`, the Ki in [1] was above 1000 nM; at D(1A) dopamine receptor it was above 1000 nM; in assay [3] it was 14 nM; on D(2) dopamine receptor [4] it was above 1000 nM. Moreover, the Efficacy in assay [2] came out at 58%.

`CCCN(C(C)C)[C@H]1COc2cccc(C(=O)OC(C)C)c2C1` yielded an inhibition constant Ki in assay [6] of 18 nM.

In the case of `CCCN[C@H]1COc2cccc(C(N)=O)c2C1`, the Ki is above 1000 nM in [1], above 1000 nM at D(1A) dopamine receptor, 98.4 nM in assay [3] and above 1000 nM at D(2) dopamine receptor [4]. This molecule also returned an Efficacy in assay [2] of 42%.
